The record followed here is patent US20220145264A1, “CULTURE MEDIUM FOR MAMMALIAN EXPANDED POTENTIAL STEM CELLS, COMPOSITION, AND METHODS THEREOF” (THE UNIVERSITY OF HONG KONG, priority 2019, published 2022).

One assay has as its system H1-EPSCs. Briefly: Requirement of individual culture components for hEPSCs (RT-qPCR, AP+ colony formation). The class given is cell-based, human. On the procedure:
(§1) Porcine and human EPSC cultures were routinely maintained on STO feeders. STO feeder plates were prepared 3-4 days before passaging by thawing and plating the mitomycin C inactivated STO cells on 0.1% gelatinised plates at the density of ˜1.1×10^4 cells/cm^2. Porcine/human EPSC cells were maintained on STO feeder layers and enzymatically passaged every 3-5 days by a brief PBS wash followed by treatment for 3-5 minutes with 0.25% trypsin/EDTA (Gibco, Cat. No. 25500-054). The cells were dissociated and centrifuged (300 g×5 minutes) in M10 medium. M10: knockout DMEM (Gibco, Cat. No. 10829-018), 10% FBS (Gibco, Cat. No. 10270), 1× Glutamine Penicillin-Streptomycin (Thermo Fisher Scientific, Cat. No. 11140050) and 1×NEAA (Thermo Fisher Scientific, Cat. No. 10378-016). After removing supernatant, the porcine/human EPSCs were re-suspended and seeded in pEPSCM/hEPSCM supplemented with 5 μM ROCK inhibitor Y-27632 (Tocris, Cat. No. 1254). 5% FBS (Gibco, Cat. No. 10270) and 10% KnockOut Serum Replacement (KSR) (Gibco, Cat. No. 10828028) were added in pEPSCM and hEPSCM respectively to improve cells survive. 12-24 hours later, medium was switched to pEPSCM/hEPSCM only. Both pEPSCM and hEPSCM are N2B27 based media. N2B27 basal media (500 ml) was prepared by inclusion of the following components: 482.5 ml DMEM/F-12 (Gibco, Cat. No. 21331-020), 2.5 ml N2 supplement (Thermo Fisher Scientific, Cat. No. 17502048), 5 ml B27 supplement (Thermo Fisher Scientific, Cat. No. 17504044), 5 ml 1× Glutamine Penicillin-Streptomycin (Thermo Fisher Scientific, Cat. No. 11140-050), and 5 ml 1×NEAA (Thermo Fisher Scientific, Cat. No. 10378-016), 0.1 mM 2-mercaptoethanol (Sigma, Cat. No. M6250). pEPSCM (500 ml) was generated by adding the following small molecules and cytokines into 500 ml N2B27 basal media: 0.2 μM CHIR99021(GSK3i, TOCRIS, Cat. No. 4423), 1 μM WH-4-023 (SRC inhibitor, TOCRIS, Cat. No. 5413), 2.5 μM XAV939 (Sigma, Cat. No. X3004) or 2.5 μM IWR-1 (TOCRIS, Cat. No. 3532), […] Vitamin C (Sigma, Cat. No. 49752-100G), 10 ng/ml LIF (Stem Cell Institute, University of Cambridge. SCI) and 20 ng/ml ACTIVIN (SCI). hEPSCM (500 ml) was generated by adding the following components into 500 ml N2B27 basal media: 1.0 μM CHIR99021(GSK3 inhibitor, TOCRIS, Cat. No. 4423), 0.5 μM A-419259 (SRC inhibitor, TOCRIS, Cat. No. 3914), 2.5 μM XAV939 (Sigma, Cat. No. X3004), […] Vitamin C (Sigma, Cat. No. 49752-100G), 10 ng/ml LIF (SCI). Although both targeting SRC family kinases (SFKs), WH-4-023 and A419259 were preferred for porcine and human EPSCs, respectively. […] The concentrations of CHIR99021 for porcine and human EPSC cultures are 0.2 μM and 1.0 μM, respectively. […] 0.25 μM SB 590885 (BRAF inhibitor, R&D, Cat. No. 2650) and 2.0 μM SP600125 ([…], TOCRIS, Cat. No. 1496) were included to improve porcine and human EPSC cultures, but they were not essential for the routine maintenance of porcine and human EPSCs. All cell cultures in this paper were performed under conditions of 37° C. and 5% CO2 unless stated otherwise.
(§2) Total RNA was isolated using an RNeasy Mini Kit (Qiagen, Cat. No. 74106) for cultured cells or RNeasy Micro Kit (Qiagen, Cat. No. 74034) for sorted NANOS3-mCherry^+ cells. RNA was subsequently quantified and treated with gDNA WipeOut to remove genomic DNA. Complementary DNA (cDNA) was prepared using a QuantiTect Reverse Transcription Kit (Qiagen, Cat. No. 205311). RT-qPCR primers or TaqMan Gene Expression Assays (Life Technologies) are listed in Supplementary Table 10 and 11. ABsolute Blue qPCR ROX Mix (ABgene, Cat. No. AB4138B) were used for probe based qPCR assays and SYBR Green ROX qPCR Mastermix (Qiagen, Cat. No. 330523) were used for primer based qPCR assays. All qPCR reactions were performed on ABI 7900 HT Sequence Detection System (Life Technologies). Information on all primers and probes used for qPCR analysis are provided in Supplementary Table 10 and 11. Gene expression was determined relative to GAPDH using the […]. […]
For orientation: Quantitative PCR measures a nucleic acid by following its amplification.

The next assay relates to pEPSCs^Emb. Briefly: Requirement of individual culture components for pEPSCs (RT-qPCR, AP+ colony formation). The assay is classed as cell-based, porcine. The note with it: for number of colonies from single cells / pluripotency gene expression: removing the component from pEPSCM. On the procedure:
as §1, §2

In assay [1] the test system is NANOS3-H2BmCherry reporter pEPSCs^Emb. Briefly: Induction of pPGCLCs from NANOS3-H2BmCherry reporter pEPSCs (EBs, FACS). The assay is classed as cell-based, porcine. As to conditions: inhibition of BMP2/4 signaling in EB culture. On the procedure:
To analyse the contribution of donor mCherry^+ porcine EPSCs in day 25-27 chimeras, the half fetuses were dissected into small pieces representing several body parts (head, trunk and tail). The dissected tissues and placenta were digested with 1.0 mg/ml collagenase IV (Thermo Fisher Scientific, Cat. No. 17104019) for 1-3 hours at 37° C. on a shaker. A pipette was used to blow the tissue blocks and dissociate them into single cells. The dissociated cells were filtered with a 35 μm nylon mesh (Corning, Cat. No. 352235) to remove tissues clumps. After centrifugation, the cells were fixed using Fixation Medium according to the manufacturers' manual (BD Cytofix, Cat. No. 554655) and the washed cells were stored at 4° C. in PBS supplemented with 0.1% NaN3 (Sigma, Cat. No. 199931) and 5% FBS (Gibco, Cat. No. 10270) before analysed with flow cytometry. All the samples were analysed using BD LSR Fortessa cytometer. 561 nm (610/20 bandpass filter) and 488 nm (525/50 bandpass filter) channels were used to detect mCherry and excluded autofluorescence. PGC EBs were trypsinized with 0.25% trypsin/EDTA Gibco, Cat. No. 25500-054) at 37° C. for 15 mins and stained with PerCP-Cy5.5 conjugated anti-TNAP antibody. 561 nm (610/20 bandpass filter) and 488 nm (710/50 bandpass filter) channels were used to detect NANOS3-H2BmCherry^+/TNAP^+ cells. FACS data were analysed by Flowjo software. […]

For a further assay, the system named is human EPSCs. The assay can be described thus: Differentiation of human EPSCs to trophoblast lineages (CDX2-H2B-Venus reporter flow cytometry, RT-qPCR). The class given is cell-based. On the procedure:
hEPSCs were dissociated with 0.25% trypsin/EDTA and seeded in gelatinised 6-well plates at a density of 0.1×10^6 cells/well. The cells were cultured in 20% KSR media supplemented with 5 μM ROCK inhibitor Y-27632 for 1 day. 20% KSR media: DMEM/F-12 (Gibco, Cat. No. 21331-020), 20% KnockOut Serum Replacement (KSR) (Gibco, Cat. No. 10828-028), 1× glutamine penicillin-streptomycin (Thermo Fisher Scientific, Cat. No. 11140-050), 1×NEAA (Thermo Fisher Scientific, Cat. No. 10378-016) and 0.1 mM 2-mercaptoethanol (Sigma, Cat. No. M6250). From the second day, different combinations of the TGFβ inhibitor SB431542 (10 μM, Tocris, Cat. No. 1514), BMP4 (50 ng/ml, R&D, Cat. No. 5020-BP) and the FGF receptor inhibitor PD173074 (0.1 μM, Tocris, Cat. No. 3044) were added into 20% KSR media to start the trophoblast differentiation. The cells were collected at indicated time points for analysis.
In general terms: A flow cytometer gives signals particle by particle.

Entries after “also recorded” stand apart in the source; their conditions may differ.

`CN1CCN(C2CCC(n3cc(-c4ccc(Oc5ccccc5)cc4)c4c(N)ncnc43)CC2)CC1` (stereo not shown) [A419259]: the “expression of pluripotency factors” value in the assay on H1-EPSCs (removal of the SRC inhibitor, human EPSCs) is on record as “reduced expression of pluripotency factors”.

Turning to `Cc1c[nH]c(-c2cnc(NCCNc3ccc(C#N)cn3)nc2-c2ccc(Cl)cc2Cl)n1` [CHIR99021], the “differentiation of EPSCs” value with pEPSCs^Emb (high concentration 3.0 μM, porcine EPSCs) was “induced differentiation; also recorded: induces porcine and human EPSC differentiation”; in the assay on H1-EPSCs (high concentration 3.0 μM, human EPSCs), “induced differentiation; also recorded: induces porcine and human EPSC differentiation”. For the same molecule, the proliferation result with pEPSCs^Emb (porcine EPSCs) and in the assay on H1-EPSCs (human EPSCs) was “improved proliferation” throughout. Further, the “number of colonies from single cells” value in the assay with pEPSCs^Emb is “reduced”. In addition, the pluripotency gene expression entry in the assay with pEPSCs^Emb is “did not affect”.

Take `c1ccc2c(-c3cnn4cc(-c5ccc(N6CCNCC6)cc5)cnc34)ccnc2c1` [LDN-193189]: the “formation of mCherry+/TNAP+ cell clusters” value in assay [1] is reported as “abrogated”.

On to `NC(=O)c1ccc(-c2nc(-c3ccc4c(c3)OCO4)c(-c3ccccn3)[nH]2)cc1` [SB431542], for which the “cell survival and pluripotency factor expression” value in the assay on pEPSCs^Emb (adding the TGFβ inhibitor to pEPSCM) is “massive cell loss and down-regulation of pluripotency factors”. For the same molecule, the cell differentiation entry with H1-EPSCs (adding the TGFβ inhibitor, human EPSCs) is recorded as “induced rapid cell differentiation”. For the same molecule, in the assay on human EPSCs (TGFβ inhibition, cells collected 4 days after), the “CDX2 reporter cells being CDX2-Venus+” value was 70%.

As to `O=C1O[C@H]([C@@H](O)CO)C(O)=C1O` [Vitamin C], in the assay on pEPSCs^Emb, the “number of colonies from single cells” value is “reduced” and the pluripotency gene expression entry is recorded as “did not affect”.

For the molecule `COc1ccc(N(C(=O)Oc2c(C)cccc2C)c2ccnc(Nc3ccc(N4CCN(C)CC4)cc3)n2)c(OC)c1` [WH-4-023], the “expression of pluripotency factors” value in the assay with pEPSCs^Emb (removal of the SRC inhibitor, porcine EPSCs) is on record as “reduced expression of pluripotency factors”. In addition, the pluripotency gene expression result in the assay on H1-EPSCs (WH-4-023 used instead of A419259 in human EPSCs) is reported as “lower pluripotency gene expression”.

B1: BMP4: cytokine (R&D, Cat. No. 5020-BP) promoting differentiation of human ESCs to putative trophoblasts (protein, UniProt P21275 293-408, looked up)
Bone morphogenetic protein 4: SPKHHPQRSRKKNKNCRRHSLYVDFSDVGWNDWIVAPPGYQAFYCHGDCPFPLADHLNSTNHAIVQTLVNSVNSSIPKACCVPTELSAISMLYLDEYDKVVLKNYQEMVVEGCGCR
B1: the “expression of trophoblast genes” value in the assay on human EPSCs (4-day BMP4 treatment, H1-EPSCs and iPSC-EPSCs versus H1-ESCs or H1-5i naïve ESCs) was “induced expression of trophoblast genes”.
